# Measured values from patent publication US10517862B2, “Fused heterocyclic compound derivative and application thereof” (NHWA PHARMA. CORPORATION, priority 2015, dated 2019).
# Tests used:
# D2 receptor = D2 receptor binding assay (3H-Spiperone, rat striatum membrane); settings: for affinity with D2 (in words): summary of in vitro assay; for D2 Inhibition rate (%): test compound final concentration 10^−5 M, 3H-Spiperone, rat striatum membrane
# Protocol: Preparation of D2 Membrane
# Rats were decapitated on ice. […] The weight of the homogenized tubes were adjusted using a balance, and centrifugation was conducted. […] Centrifugation was conducted.
# (§1) Materials for the Receptor Binding Assay
# Histamine H1 receptor = Histamine H1 receptor (Rattus norvegicus, UniProt P31390); test: Histamine H1 receptor binding assay (3H-pyrilamine, rat cerebellum membrane); settings: for inhibition at 10 µM: read-out: H1 Inhibition rate (%); for affinity with H1 (in words): summary of in vitro assay
# Histamine H1 receptor, sequence (P31390 whole entry): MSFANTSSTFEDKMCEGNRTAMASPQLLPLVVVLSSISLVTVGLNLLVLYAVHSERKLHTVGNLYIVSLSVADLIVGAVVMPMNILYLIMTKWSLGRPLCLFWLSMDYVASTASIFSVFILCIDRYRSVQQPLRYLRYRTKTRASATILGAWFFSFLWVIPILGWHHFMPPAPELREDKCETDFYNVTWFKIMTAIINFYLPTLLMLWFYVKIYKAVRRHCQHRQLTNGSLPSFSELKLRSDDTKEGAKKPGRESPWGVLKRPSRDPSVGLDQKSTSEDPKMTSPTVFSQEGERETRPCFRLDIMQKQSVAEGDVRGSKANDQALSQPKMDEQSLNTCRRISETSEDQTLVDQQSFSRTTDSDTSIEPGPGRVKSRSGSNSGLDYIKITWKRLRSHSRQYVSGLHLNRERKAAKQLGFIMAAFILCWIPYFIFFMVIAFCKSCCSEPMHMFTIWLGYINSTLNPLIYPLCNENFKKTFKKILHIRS
# Protocol: The supernatant was discarded to give pellets, and homogenate F was added again to the pellets for washing. Centrifugation was conducted and repeated 3 times.
# (2) 100 μL of membrane preparation was added into each reaction tube.
# 5HT1A receptor = target: T1, 5HT1A receptor (Rattus norvegicus, UniProt P19327); test: 5HT1A receptor binding assay (3H-8-OH-DPAT, rat striatum membrane); settings: for affinity with 5HT1A (in words): summary of in vitro assay; for inhibition at 10 µM: test compound final concentration 10^−5 M, 3H-8-OH-DPAT, rat striatum membrane, read-out: 5HT1A Inhibition rate (%)
# T1 construct: Rats were decapitated on ice; from tissue; host or cells: rat brain striatum
# T1 sequence (P19327 1-422): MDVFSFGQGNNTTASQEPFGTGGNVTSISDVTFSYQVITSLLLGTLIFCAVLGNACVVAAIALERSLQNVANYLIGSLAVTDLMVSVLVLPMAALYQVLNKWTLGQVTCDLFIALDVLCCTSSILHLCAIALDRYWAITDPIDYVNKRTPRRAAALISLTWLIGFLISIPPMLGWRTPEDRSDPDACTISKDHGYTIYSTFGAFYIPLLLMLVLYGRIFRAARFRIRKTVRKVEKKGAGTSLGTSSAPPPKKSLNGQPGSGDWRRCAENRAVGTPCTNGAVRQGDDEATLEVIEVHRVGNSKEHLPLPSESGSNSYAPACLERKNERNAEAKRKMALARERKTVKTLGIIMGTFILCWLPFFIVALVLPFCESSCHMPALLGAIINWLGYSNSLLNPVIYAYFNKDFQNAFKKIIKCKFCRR
# Protocol: Preparation of 5HT1A Membrane
# Rats were decapitated on ice. […] Incubation at 37° C. was conducted for 10 min. […] Centrifugation was conducted at 12000 rpm, 4° C. for 20 min. […] Centrifugation was conducted and repeated 3 times.
# as §1
# 5HT2C receptor = target: T2, 5HT2C receptor (Rattus norvegicus, UniProt P08909); test: 5HT2C receptor binding assay ([3H]-mesulergine, rat striatum membrane); settings: for affinity with 5HT2C (in words): summary of in vitro assay; for inhibition at 10 µM: test compound final concentration 10^−5 M, [3H]-mesulergine, rat striatum membrane, read-out: 5HT2C Inhibition rate (%)
# T2 construct: from tissue; host or cells: rat brain striatum
# T2 sequence (P08909 33-460): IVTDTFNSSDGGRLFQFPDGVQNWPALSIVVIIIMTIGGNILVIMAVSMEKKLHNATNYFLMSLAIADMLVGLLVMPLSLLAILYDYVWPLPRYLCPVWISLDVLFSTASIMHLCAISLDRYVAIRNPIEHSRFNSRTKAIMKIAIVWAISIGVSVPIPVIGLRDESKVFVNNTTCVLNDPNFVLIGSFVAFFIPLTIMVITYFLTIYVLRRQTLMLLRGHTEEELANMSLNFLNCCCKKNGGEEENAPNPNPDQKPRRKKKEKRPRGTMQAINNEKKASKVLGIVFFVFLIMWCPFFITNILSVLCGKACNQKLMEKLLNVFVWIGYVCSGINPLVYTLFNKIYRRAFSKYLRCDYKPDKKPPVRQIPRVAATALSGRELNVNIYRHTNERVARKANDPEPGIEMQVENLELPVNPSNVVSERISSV
# Protocol: Preparation of 5HT2C Membrane
# Rats were decapitated on ice. […] Centrifugation was conducted.
# as §1
# mice of Kunming breed = test: MK-801 induced high activity in mice; format: in vivo; settings: Mus musculus, 1.5 h, po, MK-801 0.1 mg/kg ip, spontaneous activities in 90 min
# Protocol: Example 54: MK-801 Induced High Activity—the In Vivo Anti-Schizophrenia Activity of the Compounds
# Healthy mice of Kunming breed (with half male and half female, (20±2) g) were provided by Qinglongshan Animal Cultivation Center, Nanjing.
# Ascorbic acid was provided by Sinopharm Chemical Reagent Co. Ltd.
# MK-801 was produced by Sigma Company, USA; the formulation method: 0.1% vitamin C was used to formulate a 1 mg/ml solution.
# Test positive drugs: haloperidol, clozapine, risperidone, olanzapine, aripiprazole, ziprasidone, quetiapine.
# Tween 80, with the concentration of 10%.
# Mice with qualified body weight were selected, and randomly divided into blank group, model group, positive control group (risperidone group) and drug group. […] 1 h after the administration, 0.1% concentration of ascorbic acid was intraperitoneally injected to the blank group at 0.1 ml/10 g; and the model group, the positive control group (30 min) and the drug group were intraperitoneally injected the MK-801 solution at 0.1 mg/kg. Subsequently, the spontaneous activities of the mice of each group in 90 min were measured.
# 5HT2A receptor = 5HT2A receptor (Rattus norvegicus, UniProt P14842); test: 5HT2A receptor binding assay ([3H]-Ketanserin, rat striatum membrane); settings: for inhibition at 10 µM: read-out: 5HT2A Inhibition rate (%); for affinity with 5HT2A (in words): summary of in vitro assay
# 5HT2A receptor, sequence (P14842 whole entry): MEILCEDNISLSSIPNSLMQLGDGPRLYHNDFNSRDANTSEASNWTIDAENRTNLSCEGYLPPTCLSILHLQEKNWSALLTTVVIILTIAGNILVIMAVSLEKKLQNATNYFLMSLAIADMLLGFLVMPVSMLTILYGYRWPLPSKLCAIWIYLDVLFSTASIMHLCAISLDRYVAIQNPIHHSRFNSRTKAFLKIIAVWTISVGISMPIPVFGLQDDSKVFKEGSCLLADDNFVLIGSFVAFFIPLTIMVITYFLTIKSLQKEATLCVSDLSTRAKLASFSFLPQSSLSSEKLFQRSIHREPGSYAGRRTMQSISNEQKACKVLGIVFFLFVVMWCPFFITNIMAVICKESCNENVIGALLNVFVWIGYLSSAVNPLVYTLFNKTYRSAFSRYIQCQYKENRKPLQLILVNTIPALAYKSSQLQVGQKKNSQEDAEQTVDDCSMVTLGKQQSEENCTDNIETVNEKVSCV
# Catalepsy assay in mice = settings: both sexes, Kunming, mouse, in vivo, po, bar test at 30, 60, 90 min
# Protocol: Healthy mice of Kunming breed (with half male and half female, (22±2) g) were provided by Qinglongshan Animal Cultivation Center, Nanjing.
# Instruments: self-made bar-grabbing apparatus: stainless steel bar in mice box, which was 0.3 cm in diameter and […].
# Corresponding solvent double-distilled water was administered intragastrically to the negative control group and the model group, corresponding positive drugs were administered intragastrically to the positive drug groups (a small amount of acetic acid was first added and then double-distilled water was added when dissolving), and corresponding dosages of compounds were administered intragastrically to the compound groups for each dosage, with the volume for intragastric administration as 0.1 ml/10 g. At 30 min, 60 min, 90 min after the intragastric administration, the two forepaws of the mice were gently placed on the bars (which were 20 cm in length, 0.3 cm in diameter, and 5.5 cm above the bench), and the hindpaws of the animals were placed on the bottom of the box. The durations of the mice to maintain the posture with the two forepaws on the bars were recorded, and 30 s of spasticity without moving was considered as the positive response. In the case the forepaws of the mice were not put down persistently, the observation was terminated at 60 s. The numbers of animals with positive response in each of the compound dosage groups were counted.
# [1] = tested on: α1 norepinephrine receptor; test: α1 norepinephrine receptor binding assay (3H-prazosin, rat cortex membrane); settings: for affinity with α1 (in words): summary of in vitro assay; for α1 Inhibition rate (%): test compound final concentration 10^−5 M, 3H-prazosin, rat cortex membrane
# Description: Preparation of Receptor Membrane of Norepinephrine
# α1 Norepinephrine Receptor Binding Assay
Compound,affinity with D2 (in words) (D2 receptor),D2 Inhibition rate (%) (D2 receptor),inhibition at 10 µM (Histamine H1 receptor) [%],affinity with H1 (in words) (Histamine H1 receptor),affinity with 5HT1A (in words) (5HT1A receptor),inhibition at 10 µM (5HT1A receptor) [%],affinity with 5HT2C (in words) (5HT2C receptor),inhibition at 10 µM (5HT2C receptor) [%],ED50 (mice of Kunming breed) [mg/kg],inhibition at 10 µM (5HT2A receptor) [%],affinity with 5HT2A (in words) (5HT2A receptor),ED50 (Catalepsy assay in mice) [mg/kg],affinity with α1 (in words) [1],α1 Inhibition rate (%) [1] [%]
O=C(CCN1CCC(c2noc3cc(F)ccc23)CC1)c1cc2c3c(c1)CCN3C(=O)CC2 [Compound 12],high affinities,97.75,41.4,low affinities,high affinities,96.5,low affinities,56.5,0.06,94.4,high affinities,8.45,low affinities,58.91
O=C(CCCN1CCC(c2noc3cc(F)ccc23)CC1)c1cc2c3c(c1)CCC(=O)N3CCC2 [Compound 5],high affinities,99.40,44.5,low affinities,high affinities,99.8,low affinities,66.8,2.2,99.5,high affinities,> 200,low affinities,43.75
